Measurements from ChEMBL document CHEMBL4814067, “An optimized analog of antimicrobial peptide Jelleine-1 shows enhanced antimicrobial activity against multidrug resistant P. aeruginosa and negligible toxicity in vitro and in vivo” (Eur J Med Chem, 2021).
Converted amounts (≈) assume the structure as drawn. The source made the active and inactive calls. The calls are words filed in the database; no cut-off is given here. Positions of bridges follow the written chain, without caps; N, C: chain ends. Non-standard residues stand in square brackets, D forms with d. Residues, ends and D or L forms follow the SMILES beside them. *: point of attachment. X1 = CC[C@H](C)CCCCC(=O)*; Dab = NCC[C@H](N)C(=O)O

Tests used:
Staphylococcus aureus [1] = assay: Antibacterial activity against methicillin resistant Staphylococcus aureus clinical isolate 3 assessed as transparent well by visual inspection after 18 hrs by CLSI based-broth microdilution method; type: functional
Escherichia coli [2] = assay: Antibacterial activity against Escherichia coli ATCC 25922 assessed as transparent well by visual inspection after 18 hrs by CLSI based-broth microdilution method; type: functional
[3] = test system: Staphylococcus epidermidis; assay: Antibacterial activity against Staphylococcus epidermidis ATCC 12228 assessed as transparent well by visual inspection after 18 hrs by CLSI based-broth microdilution method; type: functional
Escherichia coli [4] = assay: Antibacterial activity against ESBL-producing Escherichia coli clinical isolate 1 assessed as transparent well by visual inspection after 18 hrs by CLSI based-broth microdilution method; type: functional
Escherichia coli [5] = assay: Antibacterial activity against ESBL-producing Escherichia coli clinical isolate 5 assessed as transparent well by visual inspection after 18 hrs by CLSI based-broth microdilution method; type: functional
Pseudomonas aeruginosa [6] = assay: Antibacterial activity against Pseudomonas aeruginosa clinical isolate assessed as transparent well by visual inspection after 18 hrs by CLSI based-broth microdilution method; type: functional
Bacillus subtilis = assay: Antibacterial activity against Bacillus subtilis ATCC 23857 assessed as transparent well by visual inspection after 18 hrs by CLSI based-broth microdilution method; type: functional
Escherichia coli [7] = assay: Antibacterial activity against ESBL-producing Escherichia coli clinical isolate 4 assessed as transparent well by visual inspection after 18 hrs by CLSI based-broth microdilution method; type: functional
Pseudomonas aeruginosa [8] = assay: Antibacterial activity against Pseudomonas aeruginosa ATCC 27853 assessed as transparent well by visual inspection after 18 hrs by CLSI based-broth microdilution method; type: functional
Staphylococcus aureus [9] = assay: Antibacterial activity against methicillin resistant Staphylococcus aureus clinical isolate 2 assessed as transparent well by visual inspection after 18 hrs by CLSI based-broth microdilution method; type: functional
Escherichia coli [10] = assay: Antibacterial activity against ESBL-producing Escherichia coli clinical isolate 2 assessed as transparent well by visual inspection after 18 hrs by CLSI based-broth microdilution method; type: functional
Staphylococcus aureus [11] = assay: Antibacterial activity against Staphylococcus aureus ATCC 29213 assessed as transparent well by visual inspection after 18 hrs by CLSI based-broth microdilution method; type: functional; conditions: C1 ATCC 29213
Escherichia coli [12] = assay: Antibacterial activity against ESBL-producing Escherichia coli clinical isolate 3 assessed as transparent well by visual inspection after 18 hrs by CLSI based-broth microdilution method; type: functional
Staphylococcus aureus [13] = assay: Antibacterial activity against methicillin resistant Staphylococcus aureus clinical isolate 1 assessed as transparent well by visual inspection after 18 hrs by CLSI based-broth microdilution method; type: functional; conditions: C1
Staphylococcus aureus [14] = assay: Antibacterial activity against methicillin resistant Staphylococcus aureus clinical isolate 4 assessed as transparent well by visual inspection after 18 hrs by CLSI based-broth microdilution method; type: functional
Enterobacter sp. = assay: Antibacterial activity against Enterobacter sakazakii ATCC 29544 assessed as transparent well by visual inspection after 18 hrs by CLSI based-broth microdilution method; type: functional
Erythrocyte [15] = assay: Haemolytic activity in human erythrocytes at 256 uM by optical absorption assay; type: ADME, cell-based
Cell membrane [16] = assay: Induction of outer membrane permeabilization in Escherichia coli using NPN hydrophobic fluorescent probe at 1 to 8 times of MIC measured for 15 mins by multimode reader
Cell membrane [17] = assay: Induction of inner membrane permeabilization in Escherichia coli ML-35 assessed as increase in ONPG at 1 to 8 times of MIC measured 100 mins by multimode reader
Pseudomonas aeruginosa [18] = assay: Inhibition of biofilm formation in multidrug-resistant Pseudomonas aeruginosa at 256 uM measured after 24 hrs by crystal violet staining based assay; type: functional, organism-based
Staphylococcus aureus [19] = assay: Bactericidal activity against Staphylococcus aureus assessed as killing effect at 2 times MIC measured at 60 mins by bacterial colony counting assay; type: functional; conditions: 1 h
Escherichia coli [20] = assay: Bactericidal activity against Escherichia coli assessed as killing effect at 1 times MIC measured at 120 mins by bacterial colony counting assay; type: functional, organism-based
Escherichia coli [21] = assay: Bactericidal activity against Escherichia coli assessed as killing effect at 2 times MIC measured at 60 mins by bacterial colony counting assay; type: functional; conditions: 1 h
Erythrocyte [22] = assay: Haemolytic activity in human erythrocytes by optical absorption assay; type: ADME, cell-based
RAW264.7 = assay: Cytotoxicity against mouse RAW264.7 assessed as reduction in cell viability measured after 24 hrs by MTT assay; type: cell-based; conditions: raw264.7, 24 h
NIH3T3 = assay: Cytotoxicity against mouse NIH/3T3 assessed as reduction in cell viability measured after 24 hrs by MTT assay; type: cell-based; conditions: nih3t3, 24 h
Staphylococcus aureus [23] = assay: Bactericidal activity against Staphylococcus aureus assessed as killing effect at 1 times MIC measured at 120 mins by bacterial colony counting assay; type: functional, organism-based
HeLa = assay: Cytotoxicity against human HeLa cells assessed as reduction in cell viability measured after 24 hrs by MTT assay; type: cell-based

CC[C@H](C)CCCCC(=O)N[C@@H](CCN)C(=O)N[C@H](C(=O)N[C@@H](CCN)C(=O)N[C@H]1CCNC(=O)[C@H]([C@@H](C)O)NC(=O)[C@H](CCN)NC(=O)[C@H](CCN)NC(=O)[C@H](CC(C)C)NC(=O)[C@@H](Cc2ccccc2)NC(=O)[C@H](CCN)NC1=O)[C@@H](C)O (X1-[Dab]T[Dab][Dab][Dab][dF]L[Dab][Dab]T; lactam 4-C)
MIC (Staphylococcus aureus [1]): 8 µM (≈ 9.63 µg/mL) | MIC (Escherichia coli [2]): 0.5 µM (≈ 0.602 µg/mL) | MIC [3]: 2 µM (≈ 2.41 µg/mL) | MIC (Escherichia coli [4]): 0.5 µM (≈ 0.602 µg/mL) | MIC (Escherichia coli [5]): 0.5 µM (≈ 0.602 µg/mL) | MIC (Pseudomonas aeruginosa [6]): 1 µM (≈ 1.2 µg/mL) | MIC (Bacillus subtilis): 2 µM (≈ 2.41 µg/mL) | MIC (Escherichia coli [7]): 0.5 µM (≈ 0.602 µg/mL) | MIC (Pseudomonas aeruginosa [8]): 1 µM (≈ 1.2 µg/mL) | MIC (Staphylococcus aureus [9]): 8 µM (≈ 9.63 µg/mL) | MIC (Escherichia coli [10]): 0.5 µM (≈ 0.602 µg/mL) | MIC (Staphylococcus aureus [11]): 8 µM (≈ 9.63 µg/mL) | MIC (Escherichia coli [12]): 0.5 µM (≈ 0.602 µg/mL) | MIC (Staphylococcus aureus [13]): 8 µM (≈ 9.63 µg/mL) | MIC (Staphylococcus aureus [14]): 8 µM (≈ 9.63 µg/mL) | MIC (Enterobacter sp.): 0.5 µM (≈ 0.602 µg/mL)

H-PFKLKLHL-OH
MIC (Escherichia coli [2]): 32 µM | MIC [3]: 32 µM | MIC (Bacillus subtilis): 32 µM | MIC (Pseudomonas aeruginosa [8]): 32 µM | MIC (Staphylococcus aureus [11]): 128 µM | MIC (Enterobacter sp.): 32 µM

H-PFKLKLKL-OH
MIC (Escherichia coli [2]): 32 µM | MIC [3]: 16 µM | MIC (Bacillus subtilis): 16 µM | MIC (Pseudomonas aeruginosa [8]): 32 µM | MIC (Staphylococcus aureus [11]): 128 µM | MIC (Enterobacter sp.): 32 µM

H-PFKLSLHL-OH
Activity (Erythrocyte [15]): Toxic | MIC (Staphylococcus aureus [1]): 128 µM | MIC (Escherichia coli [2]): 32 µM | MIC [3]: 64 µM | MIC (Escherichia coli [4]): 32 µM | MIC (Escherichia coli [5]): 32 µM | Activity (Cell membrane [16]): Dose-Dependent Effect | MIC (Pseudomonas aeruginosa [6]): 32 µM | MIC (Bacillus subtilis): 32 µM | MIC (Escherichia coli [7]): 32 µM | MIC (Pseudomonas aeruginosa [8]): 32 µM | MIC (Staphylococcus aureus [9]): 128 µM | MIC (Escherichia coli [10]): 32 µM | Activity (Cell membrane [17]): Active | MIC (Staphylococcus aureus [11]): 128 µM | inhibition (Pseudomonas aeruginosa [18]): Active | MIC (Escherichia coli [12]): 32 µM | MIC (Staphylococcus aureus [13]): 128 µM | MIC (Staphylococcus aureus [14]): 128 µM | MIC (Enterobacter sp.): 64 µM

H-PFKLSLKL-OH
MIC (Escherichia coli [2]): 32 µM | MIC [3]: 16 µM | MIC (Bacillus subtilis): 16 µM | MIC (Pseudomonas aeruginosa [8]): 32 µM | MIC (Staphylococcus aureus [11]): 128 µM | MIC (Enterobacter sp.): 32 µM

H-PFRLRLHL-OH
MIC (Escherichia coli [2]): 16 µM | MIC [3]: 34 µM | MIC (Bacillus subtilis): 16 µM | MIC (Pseudomonas aeruginosa [8]): 32 µM | MIC (Staphylococcus aureus [11]): 128 µM | MIC (Enterobacter sp.): 32 µM

H-PFRLRLRL-OH
Activity (Staphylococcus aureus [19]): 100% | MIC (Staphylococcus aureus [1]): 64 µM | Activity (Escherichia coli [20]): Active | MIC (Escherichia coli [2]): 8 µM | MIC [3]: 16 µM | MIC (Escherichia coli [4]): 8 µM | MIC (Escherichia coli [5]): 8 µM | Activity (Cell membrane [16]): Dose-Dependent Effect | MIC (Pseudomonas aeruginosa [6]): 8 µM | MIC (Bacillus subtilis): 8 µM | MIC (Escherichia coli [7]): 8 µM | MIC (Pseudomonas aeruginosa [8]): 8 µM | MIC (Staphylococcus aureus [9]): 64 µM | Activity (Escherichia coli [21]): 100% | Activity (Erythrocyte [22]): Non-Toxic | MIC (Escherichia coli [10]): 8 µM | Activity (RAW264.7): Non-Toxic | Activity (Cell membrane [17]): Active | MIC (Staphylococcus aureus [11]): 64 µM | inhibition (Pseudomonas aeruginosa [18]): Active | Activity (NIH3T3): Non-Toxic | Activity (Staphylococcus aureus [23]): Active | MIC (Escherichia coli [12]): 8 µM | MIC (Staphylococcus aureus [13]): 64 µM | MIC (Staphylococcus aureus [14]): 64 µM | Activity (HeLa): Non-Toxic | MIC (Enterobacter sp.): 32 µM

H-PFRLSLHL-OH
MIC (Escherichia coli [2]): 32 µM | MIC [3]: 34 µM | MIC (Bacillus subtilis): 16 µM | MIC (Pseudomonas aeruginosa [8]): 32 µM | MIC (Staphylococcus aureus [11]): 128 µM | MIC (Enterobacter sp.): 32 µM

H-PFRLSLRL-OH
MIC (Escherichia coli [2]): 8 µM | MIC [3]: 16 µM | MIC (Bacillus subtilis): 16 µM | MIC (Pseudomonas aeruginosa [8]): 32 µM | MIC (Staphylococcus aureus [11]): 64 µM | MIC (Enterobacter sp.): 16 µM

H-PWKLKLHL-OH
MIC (Escherichia coli [2]): 16 µM | MIC [3]: 32 µM | MIC (Bacillus subtilis): 16 µM | MIC (Pseudomonas aeruginosa [8]): 32 µM | MIC (Staphylococcus aureus [11]): 64 µM | MIC (Enterobacter sp.): 16 µM

H-PWKLKLKL-OH
MIC (Escherichia coli [2]): 16 µM | MIC [3]: 16 µM | MIC (Bacillus subtilis): 16 µM | MIC (Pseudomonas aeruginosa [8]): 64 µM | MIC (Staphylococcus aureus [11]): 32 µM | MIC (Enterobacter sp.): 16 µM

H-PWKLSLHL-OH
MIC (Escherichia coli [2]): 16 µM | MIC [3]: 32 µM | MIC (Bacillus subtilis): 16 µM | MIC (Pseudomonas aeruginosa [8]): 16 µM | MIC (Staphylococcus aureus [11]): 64 µM | MIC (Enterobacter sp.): 16 µM

H-PWKLSLKL-OH
MIC (Escherichia coli [2]): 16 µM | MIC [3]: 16 µM | MIC (Bacillus subtilis): 16 µM | MIC (Pseudomonas aeruginosa [8]): 32 µM | MIC (Staphylococcus aureus [11]): 32 µM | MIC (Enterobacter sp.): 8 µM

H-PWRLRLHL-OH
MIC (Escherichia coli [2]): 8 µM | MIC [3]: 16 µM | MIC (Bacillus subtilis): 8 µM | MIC (Pseudomonas aeruginosa [8]): 32 µM | MIC (Staphylococcus aureus [11]): 32 µM | MIC (Enterobacter sp.): 8 µM

H-PWRLSLHL-OH
MIC (Escherichia coli [2]): 16 µM | MIC [3]: 8 µM | MIC (Bacillus subtilis): 16 µM | MIC (Pseudomonas aeruginosa [8]): 32 µM | MIC (Staphylococcus aureus [11]): 32 µM | MIC (Enterobacter sp.): 16 µM

H-PWRLSLRL-OH
MIC (Escherichia coli [2]): 8 µM | MIC [3]: 16 µM | MIC (Bacillus subtilis): 8 µM | MIC (Pseudomonas aeruginosa [8]): 8 µM | MIC (Staphylococcus aureus [11]): 32 µM | MIC (Enterobacter sp.): 8 µM
